Patent US8871681B2, “Herbicidal compositions comprising 4-amino-3-chloro-5-fluoro-6-(4-chloro-2-fluoro-3-methoxyphenyl) pyridine-2-carboxylic acid or a derivative thereof and certain sulfonylureas” (Dow AgroSciences LLC, priority 2012, dated 2014)
Where “and” joins values, the source holds several entries; their conditions need not be identical. Equal entries are not always repeated.

Experiments:
[1] = test system: ISCRU (Ischaemum rugosum, saramollagrass); assay: Postemergence foliar-applied weed control, direct seeded rice, greenhouse (Example I); assay type: in vivo, Ischaemum rugosum Salisb.
From the text: (§1) Seeds or nutlets of the desired test plant species were planted in a soil matrix prepared by mixing a loam or sandy loam soil (e.g., 28.6 percent silt, 18.8 percent clay, and 52.6 percent sand, with a pH of about 5.8 and an organic matter content of about 1.8 percent) and calcareous grit in an 80 to 20 ratio. The soil matrix was contained in plastic pots with a volume of 1 quart and a surface area of 83.6 square centimeters (cm^2). When required to ensure good germination and healthy plants, a fungicide treatment and/or other chemical or physical treatment was applied. The plants were grown for 8-22 days in a greenhouse with an approximate 14 h photoperiod which was maintained at about 29° C. during the day and 26° C. during the night. Nutrients (Peters Excel® 15-5-15 5-Ca 2-Mg and iron chelate) were applied in the irrigation solution as needed and water was added on a regular basis. Supplemental lighting was provided with overhead metal halide 1000-Watt lamps as necessary. The plants were employed for testing when they reached the first through fourth true leaf stage.
(§2) Treatments consisted of the acid or esters of 4-amino-3-chloro-5-fluoro-6-(4-chloro-2-fluoro-3-methoxy-phenyl)pyridine-2-carboxylic acid (Compound A), each formulated as an SC, and various herbicidal components alone and in combination. Forms of compound A were applied on an acid equivalent basis.
(§3) Other herbicidal components were applied on an active ingredient basis and included acetolactate synthase (ALS)-inhibiting herbicides (sulfonylurea chemical class) azimsulfuron formulated as Gulliver®, bensulfuron-methyl formulated as Londax® 60DF, cyclosulfamuron (technical material), ethoxysulfuron formulated as Sunrice® 15 WDG, flazasulfuron formulated as Katana®, flucetosulfuron formulated as Sukedachi® 1KG G, foramsulfuron formulated as Option®, imazosulfuron formulated as Brazzos® WG, iodosulfuron-methyl-sodium formulated as Hussar®, metsulfuron-methyl formulated as Lorate®, nicosulfuron formulated as Accent®, orthosulfamuron formulated as Strada® WG, primisulfuron-methyl (technical material), propyrisulfuron formulated as Zeta One®, rimsulfuron formulated as Matrix® WG, sulfometuron-methyl formulated as Oust®, and trifloxysulfuron-sodium formulated as Monument® 75WG.
(§4) Treatment requirements were calculated based upon the rates being tested, the concentration of active ingredient or acid equivalent in the formulation, and a 12 mL application volume at a rate of 187 L/ha.
(§5) For treatments comprised of formulated compounds, measured amounts of compounds were placed individually in 25 mL glass vials and diluted in a volume of 1.25% (v/v) Agri-Dex® crop oil concentrated to obtain 12× stock solutions. […] Application solutions were prepared by adding an appropriate amount of each stock solution (e.g., 1 mL) and diluted to the appropriate final concentrations with the addition of 10 mL of an aqueous mixture of 1.25% (v/v) crop oil concentrate so that the final spray solutions contained 1.25+/−0.05% (v/v) Agrcrop oil concentrate.
(§6) For treatments comprised of formulated and technical compounds, weighed amounts of the technical materials were placed individually in 25 mL glass vials and dissolved in a volume of 97:3 v/v acetone/DMSO to obtain 12× stock solutions, and measured amounts of the formulated compounds were placed individually in 25 mL glass vials and diluted in a volume of 1.25% (v/v) crop oil concentrate to obtain 12× stock solutions. […] Application solutions were prepared by adding an appropriate amount of each stock solution (e.g., 1 mL) and diluted to the appropriate final concentrations with the addition of an appropriate amount of an aqueous mixture of 1.5% (v/v) crop oil concentrate so that the final spray solutions contained 1.25% (v/v) crop oil concentrate. […]

[2] = test system: MATCH (Chamomilla chamomilla, scented mayweed); assay: Post-emergence foliar-applied weed control in cereal crops, greenhouse (Example III); assay type: in vivo, Chamomilla chamomilla (L.) Rydb.
Procedure: Seeds of the desired test plant species were planted in Sun Gro MetroMix® 306 planting mixture, which typically has a pH of 6.0 to 6.8 and an organic matter content of about 30 percent, in plastic pots with a surface area of 103.2 square centimeters (cm^2). When required to ensure good germination and healthy plants, a fungicide treatment and/or other chemical or physical treatment was applied. The plants were grown for 7-36 days in a greenhouse with an approximate 14 hour photoperiod which was maintained at about 18° C. during the day and 17° C. during the night. Nutrients and water were added on a regular basis and supplemental lighting was provided with overhead metal halide 1000-Watt lamps as necessary. The plants were employed for testing when they reached the second or third true leaf stage.
Treatments consisted of the benzyl ester of 4-amino-3-chloro-5-fluoro-6-(4-chloro-2-fluoro-3-methoxy-phenyl)pyridine-2-carboxylic acid (Compound A), formulated as an SC (suspension concentrate), and a second cereal herbicide alone and in combination.
Measured aliquot of benzyl ester of 4-amino-3-chloro-5-fluoro-6-(4-chloro-2-fluoro-3-methoxy-phenyl)pyridine-2-carboxylic acid (Compound A) was placed in 25 milliliter (mL) glass vials and diluted in a volume of 1.25% (v/v) Agri-dex crop oil concentrated to obtain stock solutions. Compound requirements are based upon a 12 mL application volume at a rate of 187 liters per hectare (L/ha). Spray solutions of the second cereal herbicide and experimental compound mixtures were prepared by adding the stock solutions to the appropriate amount of dilution solution to form 12 mL spray solution with active ingredients in two- and three-way combinations. Formulated compounds were applied to the plant material with an overhead Mandel track sprayer equipped with an 8002E nozzle calibrated to deliver 187 L/ha over an application area of 0.503 square meters (m^2) at a spray height of 18 inches (46 cm) above average plant canopy. Control plants were sprayed in the same manner with the solvent blank.
The treated plants and control plants were placed in a greenhouse as described above and watered by sub-irrigation to prevent wash-off of the test compounds. After 20-22 days, the condition of the test plants as compared with that of the control plants was determined visually and scored on a scale of 0 to 100 percent where 0 corresponds to no injury and 100 corresponds to complete kill.
Colby's equation was used to determine the herbicidal effects expected from the mixtures (Colby, S. R. 1967. Calculation of the synergistic and antagonistic response of herbicide combinations. Weeds 15:20-22.).
The following equation was used to calculate the expected activity of mixtures containing two active ingredients, A and B: Expected=A+B−(A×B/100)

[3] = test system: CYPES (Cyperus esculentus, yellow nutsedge); assay: Postemergence foliar-applied weed control, direct seeded rice, greenhouse (Example I); assay type: in vivo, Cyperus esculentus L.; conditions: 20 DAA
From the text: as §1, §2, §3, §4, §5, §6

COC(=O)c1ccccc1CS(=O)(=O)NC(=O)Nc1nc(OC)cc(OC)n1 [Bensulfuron-methyl, methyl 2-[[[[[(4,6-dimethoxy-2-pyrimidinyl)amino]carbonyl]amino]sulfonyl]methyl]benzoate, reference compound]
Visual Weed Control (%) Obs ([1]; 20 DAA, 70 gai/ha): 30%

COC(=O)c1ccccc1S(=O)(=O)NC(=O)Nc1nc(C)nc(OC)n1 [Metsulfuron-methyl, methyl 2-[[[[(4-methoxy-6-methyl-1,3,5-triazin-2-yl)amino]carbonyl]amino]sulfonyl]benzoate, reference compound]
Weed Control MATCH Obs ([2]; Table 56, after 20-22 days, 1.1 gai/ha alone): 89%

COc1c(Cl)ccc(-c2nc(C(=O)OCc3ccccc3)c(Cl)c(N)c2F)c1F [Compound A Benzyl Ester]
Visual Weed Control (%) Obs ([1]; 20 DAA, 6 gae/ha): 30%
Visual Weed Control (%) Obs ([1]; 20 DAA, 24 gae/ha): 35%
Visual Weed Control (%) Obs ([1]; 21 DAA, 8 gae/ha): 20%
Visual Weed Control (%) Obs ([1]; 21 DAA, 16 gae/ha): 0%
Visual Weed Control (%) Obs ([3]; 4.38 gae/ha): 70% and 85%
Visual Weed Control (%) Obs ([3]; 8.75 gae/ha): 80% and 90%
Visual Weed Control (%) Obs ([3]; 17.5 gae/ha): 90%
Weed Control MATCH Obs ([2]; Table 54, after 20-22 days, 8.75 gai/ha alone): 20%
Weed Control MATCH Obs ([2]; Table 55, after 20-22 days, 8.75 gai/ha alone): 20%
Weed Control MATCH Obs ([2]; Table 56, after 20-22 days, 8.75 gai/ha alone): 20%
Weed Control MATCH Obs ([2]; Table 57, after 20-22 days, 8.75 gai/ha Compound A Benzyl Ester alone): 20%
Weed Control MATCH Obs ([2]; Table 59 (cereal), after 20-22 days, 8.75 gai/ha alone): 20%

COc1c(Cl)ccc(-c2nc(C(=O)O)c(Cl)c(N)c2F)c1F [Compound A Acid, 4-amino-3-chloro-5-fluoro-6-(4-chloro-2-fluoro-3-methoxy-phenyl)pyridine-2-carboxylic acid]
Visual Weed Control (%) Obs ([3]; 4.38 gae/ha): 30%
Visual Weed Control (%) Obs ([3]; 5.3 gae/ha): 0%
Visual Weed Control (%) Obs ([3]; 8.75 gae/ha): 70%
